According to patent US12590091B2, “1H-pyrrolo[3,2-C]pyridine and 1H-pyrrolo[2,3-C]pyridine derivatives as TLR9 inhibitors for the treatment of fibrosis” (BRISTOL-MYERS SQUIBB COMPANY, priority 2020, dated 2026):

Assays:
[1] = molecular target: T1, human TLR7 (Homo sapiens, UniProt Q9NYK1); test: TLR7 inhibition reporter assay (HEK-Blue cells, SEAP reporter); format: cell-based; settings: HEK-Blue cells overexpressing human TLR7, stimulated with gardiquimod 7.5 μM, 22 hour incubation
T1 construct: host or cells: HEK-Blue cells
T1 sequence (Q9NYK1 27-1049): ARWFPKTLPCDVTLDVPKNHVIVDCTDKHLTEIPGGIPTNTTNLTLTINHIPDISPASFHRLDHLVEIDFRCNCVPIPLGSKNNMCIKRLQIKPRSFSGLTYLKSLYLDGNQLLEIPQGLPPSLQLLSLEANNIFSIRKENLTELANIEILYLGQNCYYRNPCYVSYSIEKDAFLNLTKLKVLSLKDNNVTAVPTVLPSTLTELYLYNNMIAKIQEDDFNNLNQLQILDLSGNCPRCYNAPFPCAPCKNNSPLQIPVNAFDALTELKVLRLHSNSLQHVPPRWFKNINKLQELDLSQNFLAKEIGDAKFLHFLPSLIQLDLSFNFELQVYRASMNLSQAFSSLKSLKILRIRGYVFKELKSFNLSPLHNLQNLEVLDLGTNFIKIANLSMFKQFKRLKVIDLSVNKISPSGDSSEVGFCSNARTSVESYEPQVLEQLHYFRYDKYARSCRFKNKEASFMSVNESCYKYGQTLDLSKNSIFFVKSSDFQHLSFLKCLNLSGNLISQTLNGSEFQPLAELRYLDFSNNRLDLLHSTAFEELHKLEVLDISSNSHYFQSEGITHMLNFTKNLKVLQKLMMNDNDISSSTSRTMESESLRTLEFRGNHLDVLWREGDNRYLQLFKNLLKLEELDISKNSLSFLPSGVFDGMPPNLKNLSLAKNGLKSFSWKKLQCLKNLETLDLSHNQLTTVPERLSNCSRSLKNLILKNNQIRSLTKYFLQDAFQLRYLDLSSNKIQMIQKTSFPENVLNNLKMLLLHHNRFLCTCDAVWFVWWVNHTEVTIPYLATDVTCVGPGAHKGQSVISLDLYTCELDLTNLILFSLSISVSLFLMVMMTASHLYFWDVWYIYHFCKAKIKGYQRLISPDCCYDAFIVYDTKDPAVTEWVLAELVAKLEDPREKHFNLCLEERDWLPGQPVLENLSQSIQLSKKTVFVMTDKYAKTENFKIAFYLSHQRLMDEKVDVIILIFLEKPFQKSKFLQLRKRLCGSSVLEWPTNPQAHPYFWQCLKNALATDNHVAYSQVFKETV
Method: (§1) TLR7/8/9 Inhibition Reporter Assays
(§2) HEK-Blue™-cells (Invivogen) overexpressing human TLR7, TLR8 or TLR9 receptors were used for screening inhibitors of these receptors using an inducible SEAP (secreted embryonic alkaline phosphatase) reporter gene under the control of the IFN-β minimal promoter fused to five NF-κB and AP-1-binding sites. Briefly, cells are seeded into Greiner 384 well plates (15000 cells per well for TLR7, 20,000 for TLR8 and 25,000 for TLR9) and then treated with test compounds in DMSO to yield a final dose response concentration range of 0.05 nM-50 μM. After a 30 minute compound pre-treatment at room temperature, the cells are then stimulated with a TLR7 ligand (gardiquimod at a final concentration of 7.5 μM), TLR8 ligand (R848 at a final concentration of 15.9 μM) or TLR9 ligand (ODN2006 at a final concentration of 5 nM) to activate NF-κB and AP-1 which induce the production of SEAP. After a 22 hour incubation at 37° C., 5% CO2, SEAP levels are determined with the addition of HEK-Blue™ Detection reagent (Invivogen), a cell culture medium that allows for detection of SEAP, according to manufacturer's specifications. The percent inhibition is determined as the % reduction in the HEK-Blue signal present in wells treated with agonist plus DMSO alone compared to wells treated with a known inhibitor.

[2] = molecular target: T2, human TLR8 (Homo sapiens, UniProt Q9NR97); test: TLR8 inhibition reporter assay (HEK-Blue cells, SEAP reporter); format: cell-based; settings: HEK-Blue cells overexpressing human TLR8, stimulated with R848 15.9 μM, 22 hour incubation
T2 construct: host or cells: HEK-Blue cells
T2 sequence (Q9NR97 27-1041): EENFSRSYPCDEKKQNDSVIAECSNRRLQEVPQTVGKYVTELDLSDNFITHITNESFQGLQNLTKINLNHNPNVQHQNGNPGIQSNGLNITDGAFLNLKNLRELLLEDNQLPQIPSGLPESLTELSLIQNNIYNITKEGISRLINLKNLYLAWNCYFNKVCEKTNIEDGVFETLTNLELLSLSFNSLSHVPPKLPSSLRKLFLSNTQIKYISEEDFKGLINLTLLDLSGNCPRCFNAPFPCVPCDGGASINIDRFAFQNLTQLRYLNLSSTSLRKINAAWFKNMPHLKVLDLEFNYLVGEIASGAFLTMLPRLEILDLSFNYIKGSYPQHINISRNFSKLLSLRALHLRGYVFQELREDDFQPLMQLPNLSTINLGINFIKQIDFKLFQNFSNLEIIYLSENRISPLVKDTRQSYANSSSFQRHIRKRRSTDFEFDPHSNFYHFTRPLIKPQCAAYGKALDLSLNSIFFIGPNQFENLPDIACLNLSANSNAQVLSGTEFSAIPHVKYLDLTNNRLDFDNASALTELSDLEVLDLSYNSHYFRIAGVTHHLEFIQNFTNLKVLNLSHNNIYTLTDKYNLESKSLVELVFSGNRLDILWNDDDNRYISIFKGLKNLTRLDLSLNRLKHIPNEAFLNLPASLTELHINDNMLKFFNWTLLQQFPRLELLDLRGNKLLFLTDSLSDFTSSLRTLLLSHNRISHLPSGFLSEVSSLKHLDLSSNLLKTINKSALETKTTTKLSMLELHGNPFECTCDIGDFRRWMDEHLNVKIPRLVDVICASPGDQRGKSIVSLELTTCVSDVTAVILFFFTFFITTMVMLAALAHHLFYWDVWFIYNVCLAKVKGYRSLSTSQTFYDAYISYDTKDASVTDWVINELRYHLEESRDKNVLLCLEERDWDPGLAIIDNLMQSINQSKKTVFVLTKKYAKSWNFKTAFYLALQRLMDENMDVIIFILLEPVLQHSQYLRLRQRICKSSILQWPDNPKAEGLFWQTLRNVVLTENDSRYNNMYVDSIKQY
Method: as §1, §2

IC50 [1] [µM]	IC50 [2] [µM]	Structure (SMILES)
> 50	> 50	COc1ccc(-c2c(C)[nH]c3cnc(C4CCN(C(=O)CCN5CCCC5)CC4)cc23)cc1OC [Example 23, 1-(4-(3-(3,4-dimethoxyphenyl)-2-methyl-1H-pyrrolo[2,3-c]pyridin-5-yl)piperidin-1-yl)-3-(pyrrolidin-1-yl)propan-1-one]
3.2	3.8	COc1ccc(-c2cc3cnc(-c4ccc(N5CCN(C(C)C)CC5)cc4)cc3n2C)cc1OC [Example 24, 2-(3,4-dimethoxyphenyl)-6-(4-(4-isopropylpiperazin-1-yl)phenyl)-1-methyl-1H-pyrrolo[3,2-c]pyridine]
4.5	> 50	COc1ccc(-c2cc3cnc(C4CCN(C(=O)CN5CCCCC5)CC4)cc3n2C)cc1OC [Example 25, 1-(4-(2-(3,4-dimethoxyphenyl)-1-methyl-1H-pyrrolo[3,2-c]pyridin-6-yl)piperidin-1-yl)-2-(piperidin-1-yl)ethan-1-one]
7.3	1.2	COc1ccc(-c2cc3cnc(C4CCN(C5CCN(C(=O)c6ccccc6)CC5)CC4)cc3n2C)cc1OC [Example 26, (4-(2-(3,4-dimethoxyphenyl)-1-methyl-1H-pyrrolo[3,2-c]pyridin-6-yl)-[1,4′-bipiperidin]-1′-yl)(phenyl)methanone]
2.6	1.5	COc1ccc(-c2cc3cnc(-c4ccc(N5CCN(C)CC5)cc4)cc3n2C)cc1OC [Example 27, 2-(3,4-dimethoxyphenyl)-1-methyl-6-(4-(4-methylpiperazin-1-yl)phenyl)-1H-pyrrolo[3,2-c]pyridine]
> 50	20.5	COc1ccc(-c2cc3cnc(C4CCN(Cc5ccc(C(F)(F)F)nc5)CC4)cc3n2C)cc1OC [Example 28, 2-(3,4-dimethoxyphenyl)-1-methyl-6-(1-((6-(trifluoromethyl)pyridin-3-yl)methyl)piperidin-4-yl)-1H-pyrrolo[3,2-c]pyridine]
14.4	8.2	COc1ccc(-c2cc3cnc(-c4ccc(N5CCN(C(=O)c6ccccc6)CC5)cc4)cc3n2C)cc1OC [Example 29, (4-(4-(2-(3,4-dimethoxyphenyl)-1-methyl-1H-pyrrolo[3,2-c]pyridin-6-yl)phenyl)piperazin-1-yl)(phenyl)methanone]
1.5	1.7	COc1ccc(-c2cc3cnc(-c4ccc(N5CCN(C(C)C)CC5)nc4)cc3n2C)cc1OC [Example 31, 2-(3,4-dimethoxyphenyl)-6-(6-(4-isopropylpiperazin-1-yl)pyridin-3-yl)-1-methyl-1H-pyrrolo[3,2-c]pyridine]
1.4	> 50	COc1ccc(-c2c(C)n(C)c3cnc(-c4ccc(N5CCN(C(C)C)CC5)cc4)cc23)cc1OC [Example 32, 3-(3,4-dimethoxyphenyl)-5-(4-(4-isopropylpiperazin-1-yl)phenyl)-1,2-dimethyl-1H-pyrrolo[2,3-c]pyridine]
3.2	> 50	COc1ccc(-c2c(C)n(C)c3cnc(-c4ccc(N5CCN(CCC(C)(C)O)CC5)cc4)cc23)cc1OC [Example 33, 4-(4-(4-(3-(3,4-dimethoxyphenyl)-1,2-dimethyl-1H-pyrrolo[2,3-c]pyridin-5-yl)phenyl)piperazin-1-yl)-2-methylbutan-2-ol]
2.2	> 50	Cc1nc(-c2ccc(N3CCN(CC(C)C)CC3)cc2)cc2c1cc(-c1ccc(S(C)(=O)=O)cc1)n2C [Example 34, 6-(4-(4-isobutylpiperazin-1-yl)phenyl)-1,4-dimethyl-2-(4-(methylsulfonyl)phenyl)-1H-pyrrolo[3,2-c]pyridine]
16.8	> 25	Cc1nc(-c2ccc(N3CCN(C4CCOCC4)CC3)cc2)cc2c1cc(-c1ccc(S(C)(=O)=O)cc1)n2C [Example 35, 1,4-dimethyl-2-(4-(methylsulfonyl)phenyl)-6-(4-(4-(tetrahydro-2H-pyran-4-yl)piperazin-1-yl)phenyl)-1H-pyrrolo[3,2-c]pyridine]
4.7	> 25	Cc1nc(-c2ccc(N3CCN(CCCO)CC3)cc2)cc2c1cc(-c1ccc(S(C)(=O)=O)cc1)n2C [Example 36, 3-(4-(4-(1,4-dimethyl-2-(4-(methylsulfonyl)phenyl)-1H-pyrrolo[3,2-c]pyridin-6-yl)phenyl)piperazin-1-yl)propan-1-ol]
11.7	> 25	Cc1nc(-c2ccc(N3CCN(C4CCOC4)CC3)cc2)cc2c1cc(-c1ccc(S(C)(=O)=O)cc1)n2C (stereo not drawn) [Example 37, 1,4-dimethyl-2-(4-(methylsulfonyl)phenyl)-6-(4-(4-(tetrahydrofuran-3-yl)piperazin-1-yl)phenyl)-1H-pyrrolo[3,2-c]pyridine]
2.6	11.8	COCCN1CCN(c2ccc(-c3cc4c(cc(-c5ccc(S(C)(=O)=O)cc5)n4C)c(C)n3)cc2)CC1 [Example 38, 6-(4-(4-(2-methoxyethyl)piperazin-1-yl)phenyl)-1,4-dimethyl-2-(4-(methylsulfonyl)phenyl)-1H-pyrrolo[3,2-c]pyridine]
4.9	> 16.7	Cc1nc(-c2ccc(C3CCN(CCCO)CC3)cc2)cc2c1cc(-c1ccc(S(C)(=O)=O)cc1)n2C [Example 41, 3-(4-(4-(1,4-Dimethyl-2-(4-(methylsulfonyl)phenyl)-1H-pyrrolo[3,2-c]pyridin-6-yl)phenyl)piperidin-1-yl)propan-1-ol]
6.2	2.7	Cc1nc(-c2cc(F)c(N3CCNCC3)cc2F)cc2c1cc(-c1ccc(S(C)(=O)=O)cc1)n2C [Example 43, 6-(2,5-Difluoro-4-(piperazin-1-yl)phenyl)-1,4-dimethyl-2-(4-(methylsulfonyl)phenyl)-1H-pyrrolo[3,2-c]pyridine]
0.64	1.2	Cc1nc(-c2ccc(CN3CCN(CC(C)(C)O)CC3)cc2)cc2c1cc(-c1ccc(S(C)(=O)=O)cc1)n2C [Example 44, 1-(4-(4-(1,4-Dimethyl-2-(4-(methylsulfonyl)phenyl)-1H-pyrrolo[3,2-c]pyridin-6-yl)benzyl)piperazin-1-yl)-2-methylpropan-2-ol]
